Experimental data: patent US20260347325A1, “DIPHENYLPYRAZOLE COMPOUNDS AND THEIR USE” (INSTITUT NATIONAL DE LA SANTÉ ET DE LA RECHERCHE MÉDICALE, priority 2022, published 2026)

Tests used:
Aβ = settings: in words; cited from earlier work
αCTF [1] = settings: 20-fold increase vs untreated; prior art reference compounds, footnotes e, f cite literature; cited from earlier work
APP-CTFs and AICD = settings: in words; cited from earlier work
SY5Y-APP695WT cells = settings: 72 h; prior art reference compounds, footnotes e, f cite literature; read-out: Cytotoxicity CC50; cited from earlier work
[2] = system: γ-secretase cleavage of Notch; settings: in words; cited from earlier work
AICD [3] = settings: 20-fold increase vs untreated; prior art reference compounds, footnotes e, f cite literature; cited from earlier work
sAPPα = sAPPα secretion (sAPPα/sAPPβ multiplex kit); assay type: cell-based, human; settings: for EC (1.5-fold): Homo sapiens, 24 h, concentration to increase sAPPα by 1.5-fold vs untreated, read-out: sAPPα C1.5; for secretion of sAPPα: in words
Procedure: (§1) The human neuroblastoma cell line SY5Y-APP^695WT was maintained in Dulbecco's modified Eagle medium (DMEM, high glucose, pyruvate—GIBCO, Life Technologies) supplemented with 10% fetal bovine serum, 2 mM L-glutamine, 1 mM non-essential amino acids and penicillin/streptomycin (GIBCO, Life Technologies) at 37°C in a 5% CO2 humidified incubator [36]. For compound treatment, a 10 mM stock solution was diluted in freshly supplemented DMEM medium to obtain the precise final concentration of the drug. Cells were plated at a density of 5.10^5 cells per well into 12-well plates and cultured with 1 mL supplemented DMEM cell medium for 24 h before compound exposure. The following day, the cell medium was replaced with fresh medium containing the compounds diluted at the indicated concentrations. Cells were treated for 24 h. At the end of treatments, the cell medium was collected and kept at −80°C until use, cells were rinsed once with PBS and extracted in 100 μL of Laemmli buffer (10 mM Tris, 20% glycerol, and 2% sodium dodecyl sulfate) using a cell-scraper. The cell lysate was further sonicated (30 pulses of 0.5 s, 60 Hz) for 5 min. Total protein concentration was determined using the Pierce BCA Protein Assay Kit (Thermo Scientific) according to the manufacturer's instructions. Samples were stored at −80°C until analysis.
Conditioned media of SYSY-APP^695WT collected at the end of treatments were centrifuged at 1000×g for 5 min to eliminate cell debris.
(§2) Aβ1-40/Aβ1_42 peptides, Aβx-38/Aβx-40/Aβx-42 and sAPPα/sAPPβ concentrations in […] were determined, respectively, using amyloid-beta 40 and 42 Human ELISA kits (Invitrogen), V-PLEX Plus Aβ Peptide Panel 1 (4G8) Kit (Meso Scale Diagnostics, MSD R©) and sAPPα/sAPPβ multiplex kit (Meso Scale Diagnostics, MSD R©) according to the manufacturer's instructions.
(§3) Compounds of the invention (compounds 16-17, 24-35, 57-58 and 61-72) were evaluated for their ability to modulate APP processing on SYSY human neuroblastoma cell line stably expressing the neuronal isoform of human wild-type APP695 (SY5Y-APP^wt). APP carboxy-terminal fragments (αCTFs and AICD) levels were assessed by western blotting (WB). The effect of reference and test compounds on αCTFs and AICD is expressed as the intensity of corresponding WB bands. The concentration of compounds able to increase 20-times αCTFs and AICD (C20) when compared to the control condition was calculated. Selected compounds were also evaluated for their ability to modulate the secretion of soluble APP fragments (sAPPα and sAPPβ). Aβ1-x levels (Aβ1_40 and Aβ1-42) after treatment with reference and tested compounds were measured in the cell media by ELISA (Table 2). […] Selected hit compounds were then further evaluated for their ability to decrease the level of N-truncated Aβ peptides (Aβx-38, Aβx-40, and Aβx-42). […] 2015, 6, 559-569; B1: compound 8 of M. Gay et al., Bioorg. Med. Chem. 2018, 26, 2151-2164.
(§4) The activity of compounds of the invention on sAPPα 6 and sAPPβ was further explored. The expression of sAPPβ and sAPPα, which are by-products of β- and α-secretase respectively, were quantified in media of treated cells.

Aβ1-42 = Aβ1-42 secretion in SY5Y-APPwt cells (ELISA of conditioned media); assay type: cell-based; settings: Homo sapiens, 24 h, inhibiting 50% of Aβ1-42 secretion, mean ± SD of at least two experiments in triplicate
Procedure: (§5) 2. Cell Culture and Treatments
as §1
(§6) 5. Quantification of Secreted Aβ and sAPP […]
as §2
(§7) Compounds of the invention (compounds 16-17, 24-35, 57-58 and 61-72) were evaluated for their ability to modulate APP processing on SYSY human neuroblastoma cell line stably expressing the neuronal isoform of human wild-type APP695 (SY5Y-APP^wt). APP carboxy-terminal fragments (αCTFs and AICD) levels were assessed by western blotting (WB). The effect of reference and test compounds on αCTFs and AICD is expressed as the intensity of corresponding WB bands. The concentration of compounds able to increase 20-times αCTFs and AICD (C20) when compared to the control condition was calculated. Selected compounds were also evaluated for their ability to modulate the secretion of soluble APP fragments (sAPPα and sAPPβ). Aβ1-x levels (Aβ1_40 and Aβ1-42) after treatment with reference and tested compounds were measured in the cell media by ELISA (Table 2). […] Selected hit compounds were then further evaluated for their ability to decrease the level of N-truncated Aβ peptides (Aβx-38, Aβx-40, and Aβx-42). […]

Cytotoxicity MTS assay = assay type: cell-based; settings: human, sy5y-app695wt cells; 50% of cell death after 72 h treatment
Procedure: Cytotoxicity was measured using 3-(4,5-dimethylthiazol-2-yl)-5-(3-carboxymethoxyphenyl)-2-(4-sulfophenyl)-2H-tetrazolium (MTS) tests. SY5Y-APP^695WT cells were plated in a 96-wells plate at 3.10^4 cells per well and allowed to attach for 24 h. Cells were then incubated for 72 h with 100 μL of DMEM medium with 10% SVF containing (or not) the defined concentration of drugs. Cytotoxicity was determined by using the colorimetric MTS assay (Cell Titer 96® Aqueous One Solution Cell Proliferation Assay-MTS Promega) according to the manufacturer's instructions. Absorbance was read at 490 nm.

αCTF [4] = experiment: αCTF level in SY5Y-APPwt cells by western blotting; assay type: cell-based; settings: Homo sapiens, 24 h; concentration to increase αCTF by 20-fold vs untreated; mean of at least three experiments, less than 10% deviation; read-out: αCTF (C20)
Procedure: as §1
(§8) Cell protein lysates were prepared for western-blot analysis by diluting the sample with 1 volume of NuPAGE® lithium dodecyl sulfate (LDS) 2× sample buffer supplemented with 20% NuPAGE® sample reducing agents (Invitrogen). Samples were heated for 10 min at 100°C Ten μg of total proteins per well were loaded onto precast 4-12% Criterion XT Bis-Tris polyacrylamide gels (Bio-Rad) and electrophoresis was achieved after applying a tension of 150 V during 90 min using a Criterion electrophoresis Cell with the NuPAGE® MOPS SDS running buffer (1×). Proteins were transferred to a nitrocellulose membrane of […] pore size (G&E Healthcare) using the Criterion blotting system and applying a tension of 100 V for 45 min. To resolve proteins of low molecular weights such as carboxy-terminal fragments of APP, 12% Criterion XT Bis-Tris polyacrylamide gels (Bio-Rad) were used and electrophoresis was performed during 70 min at 150 V in a NuPAGE® MES SDS running buffer (1×). […] Protein transfer and quality were determined by a reversible Ponceau Red coloration (0.2% xylidine Ponceau Red and 3% trichloroacetic acid). […] Quantifications of protein expression levels were performed with Image Quant TL (G&E Healthcare). […]
(§9) Compounds of the invention (compounds 16-17, 24-35, 57-58 and 61-72) were evaluated for their ability to modulate APP processing on SYSY human neuroblastoma cell line stably expressing the neuronal isoform of human wild-type APP695 (SY5Y-APP^wt). […]

sAPPβ = sAPPβ secretion (sAPPα/sAPPβ multiplex kit); assay type: cell-based; settings: Homo sapiens; inhibiting 50% of sAPPβ secretion in SY5Y cells; mean ± SD of at least three experiments in triplicate
Procedure: (§10) The human neuroblastoma cell line SY5Y-APP^695WT was maintained in Dulbecco's modified Eagle medium (DMEM, high glucose, pyruvate—GIBCO, Life Technologies) supplemented with 10% fetal bovine serum, 2 mM L-glutamine, 1 mM non-essential amino acids and penicillin/streptomycin (GIBCO, Life Technologies) at 37°C in a 5% CO2 humidified incubator [36]. For compound treatment, a 10 mM stock solution was diluted in freshly supplemented DMEM medium to obtain the precise final concentration of the drug. Cells were plated at a density of 5.10^5 cells per well into 12-well plates and cultured with 1 mL supplemented DMEM cell medium for 24 h before compound exposure. […] Total protein concentration was determined using the Pierce BCA Protein Assay Kit (Thermo Scientific) according to the manufacturer's instructions. […]
(§11) Aβ1-40/Aβ1_42 peptides, Aβx-38/Aβx-40/Aβx-42 and sAPPα/sAPPβ concentrations in […] were determined, respectively, using amyloid-beta 40 and 42 Human ELISA kits (Invitrogen), V-PLEX Plus Aβ Peptide Panel 1 (4G8) Kit (Meso Scale Diagnostics, MSD R©) and sAPPα/sAPPβ multiplex kit (Meso Scale Diagnostics, MSD R©) according to the manufacturer's instructions. […]
as §4

AICD [5] = experiment: AICD level in SY5Y-APPwt cells by western blotting; assay type: cell-based; settings: Homo sapiens, 24 h; concentration to increase AICD by 20-fold vs untreated; mean of at least three experiments, less than 10% deviation; read-out: AICD (C20)
Procedure: as §1, §8, §9

Aβ1-40 = Aβ1-40 secretion in SY5Y-APPwt cells (ELISA of conditioned media); assay type: cell-based; settings: Homo sapiens, 24 h, inhibiting 50% of Aβ1-40 secretion, mean ± SD of at least two experiments in triplicate
Procedure: as §5, §1, §6, §2, §7

Aβ1-x peptides = experiment: Aβ1-x (Aβ1-40 and Aβ1-42) secretion; assay type: cell-based, human; settings: in words
Procedure: as §10, with “exposure. The following day, the cell medium was replaced with fresh medium containing the compounds diluted at the indicated concentrations. Cells were treated for 24 h.” for “exposure.”
as §11

β-secretase = β-secretase cleavage of APP; assay type: cell-based, human; settings: in words
Procedure: as §3, §4

| SMILES | EC (1.5-fold) (sAPPα) [µM] | IC50 (Aβ1-42) [µM] | CC50 at 72 h (Cytotoxicity MTS assay) [µM] | EC (20-fold increase) (αCTF [4]) [µM] | EC (20-fold increase) (AICD [5]) [µM] | IC50 (Aβ1-40) [µM] | also measured |
| --- | --- | --- | --- | --- | --- | --- | --- |
| CCN(CC)CCCC(C)Nc1ccnc2cc(Cl)ccc12 (stereo not drawn) [CQ, chloroquine] | – | – | – | – | – | – | Aβ production (Aβ): inhibit Aβ production; αCTF (C20) (αCTF [1]): >>10 μM; levels of other APP metabolites such as APP-CTFs and AICD (APP-CTFs and AICD): maintained and even increased; CC50 (SY5Y-APP695WT cells): 30 µM; γ-secretase cleavage of Notch [2]: remains unmodified; AICD (C20) (AICD [3]): >>10 μM |
| CN(C)CCCc1ccc(-c2nn(-c3ccc(CN(C)CCCN(C)C)cc3)cc2CCCN(C)C)cc1 [Compound 33, N′-[[4-[4-[3-(dimethylamino)propyl]-3-[4-[3-(dimethylamino)propyl]phenyl]-1H-pyrazol-1-yl]phenyl]methyl]-N,N,N′-trimethyl-propane-1,3-diamine] | > 10 | 9.7 ± 1.2 | > 100 | 6.1 | 8.9 | 9.2 ± 0.4 | IC50 (sAPPβ): 6.8 ± 0.3 µM |
| Cc1cn(-c2cccc(CN(C)CCCN(C)C)c2)nc1-c1ccc(CN(C)CCCN(C)C)cc1 [Compound 69, [3-(dimethylamino)propyl][(4-{1-[3-({[3-(dimethylamino)propyl](methyl)amino}methyl)phenyl]-4-methyl-1H-pyrazol-3-yl}phenyl)methyl]methylamine] | > 5 | – | – | – | – | – | – |
| CN(C)CCCc1ccc(-c2nn(-c3ccc(CN(C)CCCN(C)C)cc3)cc2CN(C)C)cc1 [Compound 32, N′-[[4-[4-(dimethylaminomethyl)-3-[4-[3-(dimethylamino)propyl]phenyl]-1H-pyrazol-1-yl]phenyl]methyl]-N,N,N′-trimethyl-propane-1,3-diamine] | – | 6.1 ± 0.3 | > 100 | 1.1 | 1.8 | 4.2 ± 0.1 | – |
| CN(C)CCCc1ccc(-c2nn(-c3cccc(CN(C)CCCN(C)C)c3)cc2CN(C)C)cc1 [Compound 34, N′-[[3-[4-(dimethylaminomethyl)-3-[4-[3-(dimethylamino)propyl]phenyl]-1H-pyrazol-1-yl]phenyl]methyl]-N,N,N′-trimethyl-propane-1,3-diamine] | > 10 | 8.3 ± 0.2 | > 100 | 1.1 | 1.9 | 5.7 ± 0.5 | IC50 (sAPPβ): 4.5 ± 0.7 µM |
| CN(C)CCCc1ccc(-c2nn(-c3cccc(CN(C)CCCN(C)C)c3)cc2CCCN(C)C)cc1 [Compound 35, N′-[[3-[4-[3-(dimethylamino)propyl]-3-[4-[3-(dimethylamino)propyl]phenyl]-1H-pyrazol-1-yl]phenyl]methyl]-N,N,N′-trimethyl-propane-1,3-diamine] | – | 13.2 ± 0.2 | > 100 | 5.1 | 5.4 | 12.4 ± 0.6 | – |
| Cc1cn(-c2cccc(CN(C)C)c2)nc1-c1ccc(CN(C)CCCN(C)C)cc1 [Compound 67, {[4-(1-{3-[(dimethylamino)methyl]phenyl}-4-methyl-1H-pyrazol-3-yl)phenyl]methyl}-[3-(dimethylamino)propyl]methylamine] | 1.4 | – | – | – | – | – | secretion of sAPPα (sAPPα): increasing the secretion of sAPPα; Aβ1-x peptides secretion (Aβ1-x peptides): reduce Aβ1-x peptides secretion; β-secretase cleavage of APP / β-secretase modulatory activity (β-secretase): repressing the β-secretase cleavage of APP |
| Cc1cn(-c2cccc(CN3CCN(C)CC3)c2)nc1-c1cccc(CN(C)CCCN(C)C)c1 [Compound 71, N,N,N′-trimethyl-N′-[[3-[4-methyl-1-[3-[(4-methylpiperazin-1-yl)methyl]phenyl]pyrazol-3-yl]phenyl]methyl]propane-1,3-diamine] | 1.1 | – | – | – | – | – | secretion of sAPPα (sAPPα): increasing the secretion of sAPPα; Aβ1-x peptides secretion (Aβ1-x peptides): reduce Aβ1-x peptides secretion; β-secretase cleavage of APP / β-secretase modulatory activity (β-secretase): repressing the β-secretase cleavage of APP |
